Data: paper PMC5418348, “Identification of a Novel Allosteric Inhibitory Site on Tryptophan Hydroxylase 1 Enabling Unprecedented Selectivity Over all Related Hydroxylases” (Frontiers in Pharmacology, 2017)
“Also recorded” adds a separate entry of the source. Like-named read-outs stand apart in the source and are kept apart here.

Key:
BON cells = experiment: LDH cell toxicity assay in BON cells; format: cell-based, human; details: Figure 5B
Procedure: (§1) 5-HT newly synthesized through TPH activity was assessed both in vitro and in vivo by addition of deuterium labeled substrate (deuterated tryptophan – TRP-d5) and subsequently generated deuterium labeled product (deuterated serotonin – 5HT-d4) (Figure 6A). BON (human pancreatic carcinoid) cell line was a gift from Dr. Courtney M. Townsend (University of Texas, Galveston, TX, USA) and cultured as previously described ([Tran et al., 2004]). Cells were seeded overnight in 96-well plates at 1.2 × 10^5 cells per well in 200 μL growth media containing 1% FBS, and incubated at 37°C, 5% CO2. After 24 h, cell media was exchanged for […] serum-free media. All reagents added to the cells in subsequent steps were diluted in serum-free media. Cells were treated with 25 μL of either compound or DMSO vehicle (1 % v/v) for 15 min at 37°C, 5% CO2 and then treated with 25 μL 196 mM deuterated-tryptophan (Isotec, UK) for a further 2 h at 37°C, 5% CO2. BON cell lysates were then prepared by removal of all media with subsequent addition of […] HTAB. These lysates were further analyzed for D4-5-HT content by LCMS. Cell toxicity was also assessed in BON cells using a standard lactate dehydrogenase (LDH) assay according to instructions.

TPH1 = test system: TPH1; set-up: method as in Liu et al., 2008; details: ref Liu et al., 2008; read-out: TPH1 activity IC50 (literature); cited from earlier work
[1] = test system: BON (human pancreatic carcinoid) cell line; experiment: BON cell assay of D4-5-HT production from deuterated tryptophan; format: cell-based; details: BON cells; for IC50: read-out: IC50 inhibition of D4-5-HT production
Procedure: as §1

TPH1 (104–394) = biological target: T1, TPH1 (104–394) (Homo sapiens, UniProt P17752); experiment: Biacore surface plasma resonance binding / competition experiments; details: SPR, previously estimated, data not shown; read-out: KD toward TPH1
T1 construct: His6 (N, cleaved yes); made in house; host or cells: Escherichia coli BL21 Rosetta (DE3)
Procedure: Biosensor experiments were performed on a Biacore T100 instrument (GE Healthcare). Biotinylation and capture of TPH1 was performed by adding a volume of freshly prepared EZ-link solution (dissolved in water) to an aliquot of TPH1(104–394) in a 2:1 molar ratio and incubated on ice. After 30 min of incubation, the reaction was stopped by the addition of 100 mM of Tris pH7.5. Unreacted biotin was removed by passing the solution over a fast desalting column (Thermo scientific #89849, equilibrated with PBS, 0.5 mM TCEP) three times. Biotinylated protein was aliquoted and kept at -80°C until use. Biotinylated TPH1 (104–394) was immobilized at 22°C on a SA chip surface (GE Healthcare) equilibrated with 10 mM Hepes, 150 mM NaCl, 1 mM TCEP, 0.05% Tween20, 5% glycerol, pH7.6. Approximately 3200RU were immobilized using this procedure. A streptavidin surface served as the reference.
Binding experiments were performed at 20°C using 10 mM Hepes, 150 mM NaCl, 1 mM TCEP, 0.05% Tween20, 5% glycerol, pH7.6, 2% DMSO as running buffer. […] Using a flow rate of […], samples were injected for 120 s and dissociation was monitored for 240 s. […]

Human TPH-1 = biological target: T2, Human TPH-1 (Homo sapiens, UniProt P17752); experiment: In vitro human TPH-1 enzyme activity assay (fluorescence); format: biochemical; details: literature ref Liu et al., 2008
T2 sequence (P17752 1-444): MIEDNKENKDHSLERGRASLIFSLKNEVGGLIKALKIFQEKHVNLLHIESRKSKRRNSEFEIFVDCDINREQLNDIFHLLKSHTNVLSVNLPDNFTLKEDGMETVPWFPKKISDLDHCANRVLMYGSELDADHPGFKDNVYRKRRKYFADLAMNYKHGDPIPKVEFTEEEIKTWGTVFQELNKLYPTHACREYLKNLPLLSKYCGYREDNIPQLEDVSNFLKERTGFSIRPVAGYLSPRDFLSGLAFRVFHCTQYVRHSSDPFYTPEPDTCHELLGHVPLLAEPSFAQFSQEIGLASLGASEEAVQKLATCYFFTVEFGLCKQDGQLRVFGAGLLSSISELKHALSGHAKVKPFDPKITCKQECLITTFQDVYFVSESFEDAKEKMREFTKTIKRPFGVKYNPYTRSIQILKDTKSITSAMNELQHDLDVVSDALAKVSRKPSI
Procedure: Human TPH-1 and Human TPH-2 enzyme assays were carried out at room temperature with atmosphere oxygen in a volume of 25 μL. A base buffer of 40 mM HEPES pH 7.0, 200 mM ammonium sulfate was made and stored at 4°C. On the day of assay, final concentrations of 10 μM iron ammonium sulfate, 0.1 mg mL^-1 BSA, 25 μg mL^-1 catalase, and 0.04% Chaps were added and designated as enzyme buffer. Substrate buffer was made the same way but for the addition of a final concentration of 10 mM DTT. Enzymes were diluted as follows: 1.25x = 12.5 nM TPH1 (Final = 10 nM) or 1.25x = 37.5 nM TPH2 (Final = 30 nM) in enzyme buffer. Substrates were diluted as follows: 5x = 200 μM (6R)-5,6,7,8-Tetrahydrobiopterin dihydrochloride (BH4) (Final = 40 μM) and 5x = 100 μM Tryptophan (Final = 20 μM) in substrate buffer. Compounds were serially diluted 1:1 in DMSO to 50x = 500 μM (Final = 10 μM). Assays were performed in GNF Custom Greiner Black 384-well plates. Compounds were added at 0.5 μL per well. Enzymes were added at 20 μL per well. Compounds and enzymes were pre-incubated 15 min at room temperature. Substrates were added at 5 μL per well to initiate the reaction. The plates were covered and incubated at room temperature: 30 min for TPH1 and 60 min for TPH2. The reactions were quenched with the addition of 25 μL 30% sulfuric acid.

Kd (TPH1 (104–394)) [µM] | Compound | LDH tox (BON cells) [µM] | IC50 (TPH1) [µM] | IC50 [1] [µM] | difference between literature TPH1 IC50 and the values reported here (Human TPH-1) | IC50 inhibition of D4-5-HT production [1] | IC50 ([1]; Figure 5B, 15 min compound then 2 h deuterated tryptophan, n = 3) [µM]
 | Nc1nc(OC(c2ccc(-c3cccc(F)c3)cc2)C(F)(F)F)cc(-c2ccc(C[C@H](N)C(=O)O)cc2)n1 (stereo partly shown) [LP533401] | > 30 | 0.7 | 12.4 |  |  | 
56 | N[C@@H](Cc1c[nH]c2ccccc12)C(=O)O [L-Trp] |  |  |  |  |  | 
 | N[C@@H](Cc1ccc(Cl)cc1)C(=O)O (racemic) [pCPA, p-chlorophenylalanine] | > 30 | 250 |  | approximately 50 fold | could not be established; also recorded: not measurable | > 30
11 | C[C@H](O)[C@H](O)C1=Nc2c(nc(N)[nH]c2=O)NC1 [BH2] |  |  |  |  |  | 
